Data published in patent US20080260639A1, “PREPARATION AND METHOD UTILIZING RADIOLABELED CHLOROTOXIN” (priority 2004, published 2008).

Columns and labels:
[1] = Storage stability of I-131 MIBG: percent of iodine remaining bound to the MIBG; format: physicochemical; conditions: for percent of iodine remaining bound to the MIBG: 1 mCi per vial
Text: The radioactive diagnostic radiopharmaceutical in this invention requires no further cold or refrigerated storage, including with respect to shipping, subsequent to stabilization. The lyophilized radiopharmaceutical composition is reconstituted “on site” for administration to patients by the addition of a suitable diluent to bring the radiopharmaceutical complex into solution at the time of administration to the patient. For administration, the I-123 labeled MIBG in the vial must be reconstituted. Because of the minute quantity of material, the vial of radionuclide complex, in the preferred mode the I-123 labeled MIBG will appear empty. The MIBG ligand is stable for several days because of the absence of water which is the primary substance from which free radicals are generated by gamma ray collisions with water molecules. The gamma rays are being emitted by the radionuclide, that is the I-123. The health care provider would add up to 2 ml. of sterile normal saline. The desired dose would be withdrawn and measured in a dose calibrator of a type manufactured by Capintec of Montville, N.J. If the glass vial is measured in the dose calibrator, the person measuring the dose must recognize that the glass vial will decrease the apparent activity. Upon calibration of the desired dose, the I-123 MIBG now re-dissolved in the solution is promptly administered to the patient. The advantages are that the flash freezing and lowering of vapor pressure result in quick formation and evaporation or sublimation (evaporation from ice to water vapour (a gas)) of water from the I-123 MIBG. The I-123 MIBG need not be shipped frozen in dry ice nor need it be shipped for overnight delivery. Shipping in dry ice over a weekend is generally not commercially practical. The I-123 MIBG can be shipped over the weekend and be used on Monday while simply maintaining it at room temperature or below. In order to establish the advantages of the novel process and resulting composition, a series of tests were run utilizing meta iodo benzyl guanidine (MIBG) in which the radionuclide I-131 was the iodine in the MIBG.
The MIBG was prepared as follows: eight vials were prepared of MIBG in solution with a radioactive concentration of MIBG of 1 mCi per vial. The MIBG in six of those vials were then stabilized and lyophilized according to the process described in this invention. One vial was frozen and maintained at a temperature of −10 degrees, and another vial was simply refrigerated at approximately 5 degrees.
Six vials were prepared according to the process in this invention in order to enable several to be reconstituted from the lyophilized state and their activity tallied.
The radioactive concentration of MIBG per vial was 1 mCi per vial.
The results showing the percent of iodine remaining bound to the MIBG are set forth in table I. One each of the vials was reconstituted after 24, 48, 72 and 168 hours respectively.

[2] = Storage stability of 1-131 Hippuran: percent remaining bound; format: physicochemical; conditions: 1 mCi per vial
Experimental: As another example, 1-131 Hippuran was prepared. The 1-131 Hippuran was prepared as follows: 9 vials were prepared of 1-131 Hippuran in solution with a radioactive concentration of MIBG of 1 mCi per vial. Each vial had 4 cc. The 1-131 in seven of those vials was then stabilized and lyophilized according to the process described in this invention. One vial was frozen and maintained at a temperature of −10 degrees, and another vial was maintained room temperature. Room temperature was selected because Hippuran is thought to be stable at room temperature even in conjunction with a radioisotope. […]

SMILES: N=C(N)NCc1cccc([131I])c1 [MIBG, meta iodo benzyl guanidine]
- percent of iodine remaining bound to the MIBG ([1]; Frozen −10°, 24 hours): 94%
- percent of iodine remaining bound to the MIBG ([1]; Frozen −10°, 48 hours): 91%
- percent of iodine remaining bound to the MIBG ([1]; Frozen −10°, 72 hours): 84%
- percent of iodine remaining bound to the MIBG ([1]; Frozen −10°, 168 hours (1 wk.)): 72%
- percent of iodine remaining bound to the MIBG ([1]; Lyophilized and stabilized per invention, stored at room temp., 24 hours): 97%
- percent of iodine remaining bound to the MIBG ([1]; Refrigerated ~+5°, 24 hours): 92%
- percent of iodine remaining bound to the MIBG ([1]; Refrigerated ~+5°, 48 hours): 85%
- percent of iodine remaining bound to the MIBG ([1]; Refrigerated ~+5°, 72 hours): 77%
- percent of iodine remaining bound to the MIBG ([1]; Refrigerated ~+5°, 168 hours (1 wk.)): 55%
- activity on storage ([1]; not stabilized and lyophilized per this invention): deteriorated sharply

SMILES: O=C([O-])CNC(=O)c1ccccc1[131I].[Na+] [Hippuran]
- percent of Hippuran remaining bound to the I-123 ([2]; Frozen −10°, 0 hours): 98%
- percent of Hippuran remaining bound to the I-123 ([2]; Frozen −10°, 24 hrs): 97.8%
- percent of Hippuran remaining bound to the I-123 ([2]; Frozen −10°, 48 hrs): 97%
- percent of Hippuran remaining bound to the I-123 ([2]; Frozen −10°, 72 hrs): 94%
- percent of Hippuran remaining bound to the I-123 ([2]; Frozen −10°, 96 hrs): 92.5%
- percent of Hippuran remaining bound to the I-123 ([2]; Frozen −10°, 120 hrs): 91%
- percent of Hippuran remaining bound to the I-123 ([2]; Lyophilized and stabilized per invention, stored at room temp., 0 hours): 98%
- percent of Hippuran remaining bound to the I-123 ([2]; Lyophilized and stabilized per invention, stored at room temp., 24 hrs): 98.4%
- percent of Hippuran remaining bound to the I-123 ([2]; Lyophilized and stabilized per invention, stored at room temp., 48 hrs): 98.6%
- percent of Hippuran remaining bound to the I-123 ([2]; Lyophilized and stabilized per invention, stored at room temp., 72 hrs): 98%
- percent of Hippuran remaining bound to the I-123 ([2]; Lyophilized and stabilized per invention, stored at room temp., 96 hrs): 98.4%
- percent of Hippuran remaining bound to the I-123 ([2]; Lyophilized and stabilized per invention, stored at room temp., 120 hrs): 98.5%
- percent of Hippuran remaining bound to the I-123 ([2]; Room Temp. (solution, not lyophilized), 0 hours): 98%
- percent of Hippuran remaining bound to the I-123 ([2]; Room Temp. (solution, not lyophilized), 24 hrs): 96%
- percent of Hippuran remaining bound to the I-123 ([2]; Room Temp. (solution, not lyophilized), 48 hrs): 95%
- percent of Hippuran remaining bound to the I-123 ([2]; Room Temp. (solution, not lyophilized), 72 hrs): 94.5%
- percent of Hippuran remaining bound to the I-123 ([2]; Room Temp. (solution, not lyophilized), 96 hrs): 92%
- percent of Hippuran remaining bound to the I-123 ([2]; Room Temp. (solution, not lyophilized), 120 hrs): 90%
